Data: patent US6150361A, “Triazineone compounds for treating diseases due to sarcosystis, neospora and toxoplasma” (Bayer Corporation, priority 1998, dated 2000)
Values joined by “and” are separate entries in the source; they are usually repeats but may differ in a detail not shown here. Identical values can stand only once.

How the values were obtained:
[1] = Pharmacokinetics of a single oral dose of Toltrazuril in horses (blood levels); format: in vivo; settings: single oral dose of Toltrazuril 10 mg/kg
Protocol: A pharmacokinetic study was conducted in horses comparing blood levels of Toltrazuril, Ponazuril and Toltrazuril Sulfoxide at various times post a single dose of Toltrazuril. All horses received a single dose of 10 mg/kg, which was administered orally as a suspension. Blood samples were drawn at the time of treatment (0) and at 0.25, 0.5, 1, 2, 4, 6, 12, 24, 48 and 72 hours post treatment. […] This was an indication that Ponazuril, alone, would produce acceptable blood levels that are envisioned to pass the blood-brain barrier, a characteristic required to treat neurological diseases such as those caused by Sarcocystis neurona, Toxoplasma gondii, Neospora caninum and Neospora

Toxoplasma gondii = experiment: Microtiter Monolayer Disruption Assay (MMDA), Toxoplasma gondii; format: cell-based, Toxoplasma gondii strain RH; settings: BT cells
Protocol: (§1) In order to determine the scope of protection provided by Ponazuril, in vitro testing was conducted. The following strains of parasites were evaluated for their sensitivity to this compound: Strain SN3 of Sarcocystis neurona; strain SF1 of Sarcocystis falcatula; strain RH of Toxoplasma gondii; and the NC-1 strain of Neospora caninum. […]
(§2) Bovine turbinate (BT) cells were used for all in vitro studies. Cells were grown to confluency in 25 cm^2 flasks in RMPI 1640 media supplemented with 10% v/v fetal bovine serum (FBS), 100 Units penicillin (G/mL), […] streptomycin/mL and 5×10^-2 mM 2-mercpatoethanol. After cell confluence was obtained, cells were maintained in the same media with reduced FBS (2% v/v). Cell cultures were incubated at 37 C. in a humidified atmosphere containing 5% carbon dioxide and 95% air.
(§3) For growth of parasites, BT cell monolayers were infected with parasites and examined with an inverted microscope for the development of lesions (cytopathic effect, "CPE") or the presence of many extracellular merozoites. Once lesions were observed, or many extracellular parasites were present, the monolayer was scraped with the tip of a 5 mL pipette and 1 to 3 drops of the merozoite-containing fluid was transferred to two flasks of fresh BT cells. Merozoites of S. neurona and S. falcatula were passaged in this manner every 5 to 10 days while the tachyzoites of T. gondii and N. caninum were passaged every 3 to 4 days.
The assay used to determine the effectiveness of Ponazuril was the Microtiter Monolayer Disruption Assay (MMDA). This assay was used to determine if the parasites or compound were toxic for BT cells. Flat bottomed 96-well microtiter plates were inoculated with BT cells and the resulting monolayers were used to determine the effects of Toltrazuril and Ponazuril on merozoite production as measured by CPE (plaque formation). […]

[2] = Drug levels in cerebral spinal fluid after repeated doses of Toltrazuril in horses; format: in vivo; set-up: Drug level in Cerebral Spinal Fluid, Day 10 / AVG drug level in Cerebral Spinal Fluid, Day 10: unit not given here; settings: for AVG drug level in Cerebral Spinal Fluid, Day 10: group average; for Drug level in Cerebral Spinal Fluid, Day 10: individual horse
Protocol: This experiment was conducted in order to determine whether triazineones such as Toltrazuril can pass the blood-brain barrier. Normal horses were divided into three groups of three horses per group. Group 1 horses received Toltrazuril administered orally as a 5% suspension at a dose level of 2.5 mg/Kg. Group 2 horses received Toltrazuril administered orally as a 5% suspension at a dose level of 5.0 mg/Kg. Group 3 horses received Toltrazuril administered orally as a 5% suspension at a dose level of 7.5 mg/Kg. The dosing was repeated daily for 10 days. Blood samples were drawn at 48, 96 and 240 hours and the concentration of Toltrazuril, Toltrazuril sulfoxide and Ponazuril in the serum was measured. Ten days after the start of the treatment (Day 10), a sample of cerebral spinal fluid was removed from each horse and the concentrations of Toltrazuril, Toltrazuril Sulfoxide and Ponazuril were again measured in these samples. The concentrations of Toltrazuril, Toltrazuril Sulfoxide and Ponazuril in the serum and cerebral spinal fluid are reported in TABLES 5a and 5b.

Sarcocystis neurona = experiment: Microtiter Monolayer Disruption Assay (MMDA), Sarcocystis neurona; format: cell-based, Sarcocystis neurona strain SN3; settings: BT cells
Protocol: as §1, §2, §3
The assay used to determine the effectiveness of Ponazuril was the Microtiter Monolayer Disruption Assay (MMDA). This assay was used to determine if the parasites or compound were toxic for BT cells. Flat bottomed 96-well microtiter plates were inoculated with BT cells and the resulting monolayers were used to determine the effects of Toltrazuril and Ponazuril on merozoite production as measured by CPE (plaque formation). Monolayers were inoculated with parasites (S. neurona or S. falcatula at a count of 50,000/well, T. gondii at a level of 10,000/well, and N. caninum at 20,000/well. All wells were inoculated with the test compound 2 hours after infection. Untreated and […] monolayer wells served as parasite controls and uninfected agent treated BT cells served as toxicity controls. Each treatment was examined in replicates of 6. Each well was visually monitored daily and the assay was stopped when 90-100% of the untreated merozoite infected cells had lysed (90-100% CPE). All wells of the plates were rinsed in Phosphate Buffered Saline (PBS) and fixed in 100% methanol for 5 minutes after which they were stained in crystal violet solution. […]

[3] = 0.1 μg/mL, read-out: Percent Inhibition of Cell Destruction, 0.1 μg/mL
[4] = Toltrazuril 2.5 mg/Kg oral daily for 10 days
[5] = Toltrazuril 5.0 mg/Kg oral daily for 10 days
[6] = Toltrazuril 7.5 mg/Kg oral daily for 10 days

Cc1cc(-n2c(=O)[nH]c(=O)n(C)c2=O)ccc1Oc1ccc(S(=O)(=O)C(F)(F)F)cc1 [Ponazuril]
concentration at 0.25 h ([1]; horse, blood, po, 10 mg/kg, suspension, 0.25 h post treatment, one value per horse (A-F), read-out: Concentration in mg/l of Blood, 0.25 hours): 0.01 mg/L
concentration at 24 h ([1]; horse, blood, po, 10 mg/kg, suspension, 24 h post treatment, one value per horse (A-F), read-out: Concentration in mg/l of Blood, 24 hours): 0.324 mg/L
levels in serum/bloodstream of horses receiving Toltrazuril (in words) [1]: relatively high levels
Concentration in mg/l of Blood, 0.25 hours ([1]; suspension, 0.25 h post treatment, one value per horse (A-F), 10 mg/kg, 15 min): < 0.01 mg/L
Concentration in mg/l of Blood, 6 hours ([1]; suspension, 6 h post treatment, one value per horse (A-F), 10 mg/kg, 360 min): 0.061 mg/L
Concentration in mg/l of Blood, 24 hours ([1]; suspension, 24 h post treatment, one value per horse (A-F), 10 mg/kg, 1440 min): 0.255 mg/L and 0.315 mg/L and 0.231 mg/L and 0.192 mg/L
inhibition at 0.001 µg/mL (Toxoplasma gondii; 0.001 μg/mL, read-out: Percent Inhibition of Cell Destruction, 0.001 μg/mL): 11%
inhibition at 0.1 µg/mL (Toxoplasma gondii; [3]): 100%
inhibition at 1 µg/mL (Toxoplasma gondii; 1.0 μg/mL, read-out: Percent Inhibition of Cell Destruction, 1.0 μg/mL): 100%
AVG drug level in Cerebral Spinal Fluid, Day 10 [2, 4]: 0.09
Drug level in Cerebral Spinal Fluid, Day 10 [2, 4]: 0.09 and 0.07 and 0.11
AVG drug level in Cerebral Spinal Fluid, Day 10 [2, 5]: 0.16
Drug level in Cerebral Spinal Fluid, Day 10 [2, 5]: 0.12 and 0.14 and 0.21
AVG drug level in Cerebral Spinal Fluid, Day 10 [2, 6]: 0.22
Drug level in Cerebral Spinal Fluid, Day 10 [2, 6]: 0.23 and 0.17 and 0.27
concentration in the cerebral spinal fluid compared with Toltrazuril ([2]; after treatment of horses with Toltrazuril): essentially equivalent to the concentration of Toltrazuril itself
inhibition at 0.1 µg/mL (Sarcocystis neurona; [3]): 0%
inhibition at 1 µg/mL (Sarcocystis neurona; 1 μg/mL, read-out: Percent Inhibition of Cell Destruction, 1 μg/mL): 40%
inhibition at 5 µg/mL (Sarcocystis neurona; 5.0 μg/mL, read-out: Percent Inhibition of Cell Destruction, 5.0 μg/mL): 90%
inhibition at 10 µg/mL (Sarcocystis neurona; 10 μg/mL, read-out: Percent Inhibition of Cell Destruction, 10 μg/mL): 100%
